Series [1] deals with TNF-α mRNA. In words: TNF-α knockdown in human monocytes (branch DNA).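 Also: LPS-activated human CD14+ monocytes, TNF-α mRNA read by branched DNA assay and normalized to cypB mRNA, knockdown compared with random-sequence Qneg siRNA as negative control.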
From the text: For mRNA measurement, branch DNA technology from Genospectra (CA) was used according to manufacturer's specification. Human monocytes (CD14+) treated with LPS induce TNF-α-specific mRNA within approximately 2 hrs, followed by peak levels of TNF-α protein 2 hrs later. siRNAs were screened for knockdown activity by transfecting monocytes with siRNA candidate sequences using Lipofectamine 2000, treating infected cells with LPS, and measuring TNF-α mRNA levels approximately 16 hrs later.
To quantitate mRNA level in the cells, both house keeping gene (cypB) and target gene (TNF-α) mRNA were measured, and the reading for TNF-α was normalized with cypB to obtain relative luminescence unit.
Qneg represents a random siRNA sequence and functions as the negative control in these experiments.
Series [2] concerns human TNF-α transgenic mice. Description: RA paw score in human TNF-α transgenic mice.
Method: For human TNF-α animal disease models, two transgenic models were used. The tg197 mice were acquired from Pasteur Hellenic Institute (Athens, Greece), and the B6.SJL-Tg(TNF) N21 mice were purchased from Taconic, Inc. (Germantown, N.Y.). The genotypes of both human TNF-α transgenic mouse models were performed by suppliers. […] All treatments were by tail vein injection twice a week. […] A similar dose regimen was used for B6.SJL-Tg(TNF) N21 mice. Clinical scores were based on a previously described scoring system (2, 3) as follows: 0 (normal), 1 (edema or distortion of paw or ankle joints), 2 (distortion of paw and ankle joints), or 3 (ankylosis of wrist or ankle joints). The sum of all four paws was scored twice a week with a maximum score of 12 per mouse.
For Hellenic transgenic mice, RA scores were determined (blinded to treatment) using the following criteria: 0, normal; 1, edema or distortion of paw or ankle joints; 2 distortion of paw and ankle joints; 3, ankylosis of wrist or ankle joints.
Human NF-α expressing mice were purchase from the Hellenic Pasture Institute, Greece) at 5 weeks old. […] During the injection periods, plasma samples were collected for ELISA testing (R&D Systems, Cat#SSTA00C), and paw scores were taken twice a week as an accepted index of RA disease progression and therapeutic efficacy (Table 19).
Due to the difference in the starting point (some animals present with scores at earlier points), the scores have been adjusted to 0 for all animals in the experiments. Each paw is given a score between 0 and 3, with the highest score of 12, according to the following scoring index. • 0: Normal • 1: edema or distortion of paw or ankle joints • 2: distortion of paw and ankle joints • 3: ankylosis of wrist or ankle joints.
The subject of series [3] is TNF-α. Description: mouse LPS response, TNF-α in blood. The series is classed as in vivo. The following applies: 2 mg/kg siRNA, with or without PN73; vs negative controls. The method, then:
Normal [mouse type] mice were treated with various concentrations of LPS by intraperitoneal or intravenous injections. LPS responsiveness was determined by measuring levels of TNF-α in blood that was sampled various times following the LPS injection. A linear range of TNF-α induction was found between 10 ng and 100 ng for LPS injection by IP administration and up to 25 ng by IV injection. The average time for maximal TNF-α induction is 70 minutes following LPS injection.
The LPS induction was performed 24 hr following the last siRNA injection, 0.2 ug LPS and blood was collected at 90 minutes following LPS injection.
Three studies of 30 animals each dosing by the following schedules: 4 consecutive days; 8 consecutive days; and 11 consecutive days. LPS induction was performed at 24 hr post siRNA injection, 25 ng LPS (IP). Blood was drawn 70 minutes following LPS injection. […] Results from measurements and 8 and 11 days gave variable results owing to technical problems partly arising from repeated tail injections.

Series [4] has as its system mouse tail fibroblast (MTF) cells. It counts as cell-based. The following applies: peptide/siRNA complex.
Method: (§2) Cells were plated the day before so that they were ˜50-80% confluent at time of transfection. For complexes, siRNA and peptide were diluted in Opti-MEM® media (Invitrogen), then mixed and allowed to complex 5-10 minutes before adding to cells washed with PBS. Final concentration of siRNA was 500 nM at each peptide concentration (2-50 μM). The conjugate, also diluted in Opti-MEM® media, was added to cells at final concentrations ranging from 62.5 nM to 500 nM. At 500 nM concentration, we also combined with 20% FBS just before adding to washed cells. Cells were transfected for 3 hours at 37° C., 5% CO2. Cells were washed with PBS, treated with trypsin and then analyzed by flow cytometry. siRNA uptake was measured by intensity of Cy5 fluorescence and cellular viability assessed by addition of propidium iodide.
The materials and methods used for the experiments performed in 9L/LacZ cells and mouse fibroblast cells are generally the same as described above, except that for the murine experiments, 9L/LacZ cells were replaced with mouse tail fibroblasts.
In series [5] the test system is 9L/LacZ cells. Description: siRNA uptake by flow cytometry in 9L/LacZ cells. The series is classed as cell-based, rat. The following applies: peptide/siRNA complex. On the technique in general: A flow cytometer gives signals particle by particle.
Method: as §2
Uptake was measured using 9L/lacZ cells transfected as described in Example 2. Cells were washed with PBS, treated with trypsin and then analyzed by flow cytometry. siRNA uptake was measured by intensity of FAM fluorescence and cellular viability assessed by addition of propidium iodide.
Series [6] relates to TNF-α protein. In words: TNF-α protein ELISA in human monocytes. It counts as cell-based. The following applies: siRNA screen with Lipofectamine 2000, LPS-activated monocytes.
Method: Human monocytes (CD14+) treated with LPS induce TNF-α-specific mRNA within approximately 2 hrs, followed by peak levels of TNF-α protein 2 hrs later. siRNAs were screened for knockdown activity by transfecting monocytes with siRNA candidate sequences using Lipofectamine 2000, treating infected cells with LPS, and measuring TNF-α mRNA levels approximately 16 hrs later.
To quantitate mRNA level in the cells, both house keeping gene (cypB) and target gene (TNF-α) mRNA were measured, and the reading for TNF-α was normalized with cypB to obtain relative luminescence unit. To quantify protein level, the TNF-α ELISA from BD Bioscience was used according to manufacturer's specification.
Series [7] concerns 9L/LacZ cells. Description: beta-galactosidase knockdown assay of siRNA transfection efficiency. The series is classed as cell-based, rat. The following applies: Histone H2B plus siRNA.
Method: For H3, H4 and H2b, a series of experiments was performed to complex these polynucleotide delivery-enhancing polypeptides with siRNA in different ratios. Generally this was initiated with a 1:0.01 to 1:50 of siRNA/histone ratio. To each well in a 96-well microtiter plate, 40 pm siRNA was added. Each well contained beta-gal cells at 50% confluency.
Transfections were performed with either regular siRNA or siRNA complexed with one of the above-identified histone proteins on 9L/beta-gal cells. The siRNA was designed to specifically knock down beta-galactosidase mRNA, and activities are expressed as percentage of beta-gal activities from control (control cells were transfected using lipofectamine without the polynucleotide delivery-enhancing polypeptide).
For beta-galactosidase assays, 9L/LacZ cells, a cell line constitutively expressing beta-galactosidase, were used. 9L/LacZ cells are rat gliosarcoma fibroblast cells that constitutively express LacZ and were obtained from ATCC (#CRL-2200). […]
The transfection efficiency inversely correlates with the amount of beta-galactosidase activity measured from the cell lysate. Upon transfection, a measured decrease in beta-galactosidase activity indicates a successful transfection. Thus, in the absence of transfection, the measured beta-galactosidase activity is 100% and the transfection efficiency is 0%. […]
The test system of series [8] is IL-1β mRNA. In words: interferon responsiveness, IL-1β mRNA (bDNA). It counts as cell-based. The following applies: siRNA complexed with lipofectamine; 100 nM or 200 nM for TNF-α9. The method, then:
(§1) Interferon responsiveness was assayed by ELISA (protein) and bDNA (mRNA levels).

Series [9] relates to interferon response markers (IL-1β, INF-α, IL-6, IL-8, IL-12, MIP-1α, IFN-γ, TNF-α). In words: interferon responsiveness, marker protein ELISA. It counts as cell-based. The method, then: as §1
In general terms: ELISA stands for enzyme-linked immunosorbent assay.

Series [10] concerns human TNF-α. Description: plasma human TNF-α by ELISA in human TNF-α transgenic mice. The series is classed as in vivo, mouse. The following applies: average of the mice. Here is the method:
For determination of TNF-α level, For the analysis of experiments involving transgenic mice, plasma samples were separated from whole blood collected by orbital bleeding. Plasma levels of hTNF-α were determined by ELISA at a 1:2 dilution according to the manufacturer's instructions (R&D systems, Minneapolis, Minn.).
For Taconic mice, TNF-α levels in plasma were determined by ELISA (R&D systems, Minneapolis, Minn.) and treatment schedules were same as Hellenic transgenic hTNF-αtransgenic mice.

As to “AAUCCUCAGCCUCUUCUCCUU (siRNA; chemistry not fully specified) [LC13]”, the “TNF-α knockdown activity (FIG. 6-C)” value in [1] (absence of PN73, 0-2.5 nM) is “little knockdown activity”. In addition, the “KD (%) TNF-α” value in [1] (siRNA 4 nM complexed with 1.6 uM PN73) is 48.29%; in series [1] (siRNA 4 nM complexed with 1.6 uM PN509), 25.04%; in series [1] (siRNA 20 nM complexed with 0.5 uM PN250), 20.65%; in series [1] (siRNA 20 nM complexed with 0.75 uM PN250) it was 18.04%; in series [1] (siRNA 20 nM complexed with 1 uM PN250), 31.35%. Further, the “decrease in TNF-α gene expression relative to Qneg control (FIG. 6-B)” value in series [1] (siRNA complexed with PN73 1:1, 0-2.5 nM) is roughly 15%. Further, the “Relative effect of siRNA, paw score” value in [2] (group TNF #4) is recorded as “Overall low paw score”. Moreover, in [3], the “circulating TNF-α resulting from LPS induction” value is reported as “lowered amounts of circulating TNF-α”.

As to AAVALLPAVLLALLAPRKKRRQRRRPPQC [PN27], the “Percent Uptake Primary MTF Cells” value in series [4] was 61%. Moreover, the “Percent Uptake LacZ Cells” value in [5] came to 86%.

For the substance “GCGUGGAGCUGAGAGAUAA (chemistry not given here) [TNF-α-1]”, the “TNF-α mRNA knockdown” value in series [1] (siRNA screen with Lipofectamine 2000, LPS-activated monocytes) is 50%. Also, in series [6], the “reduction in TNF-α protein level” value is listed as 75%.

Histone H2B: in series [7], the measured beta-galactosidase activity came out at 37.97%.

As for “NH2-LLETLLKPFQCRICMRNFSTRQARRNHRRRHRR-amide (H-LLETLLKPFQCRICMRNFSTRQARRNHRRRHRR-NH2; cysteine pairing not given here) [PN202]”, the “Percent Uptake LacZ Cells” value in [5] worked out at 71%.

In the case of “NH2-RKKRRQRRRPPQCAAVALLPAVLLALLAP-amide (H-RKKRRQRRRPPQCAAVALLPAVLLALLAP-NH2) [PN28]”, the “Percent Uptake Primary MTF Cells” value in [4] was 81%. For the same substance, in series [5], the “Percent Uptake LacZ Cells” value was determined as 79%.

Turning to “UAGCCCAUGUUGUAGCAAA (siRNA; delivered with peptide PN73, further chemistry not given here) [TNF-α9]”, in series [2] (group TNF #7), the “Relative effect of siRNA, effectiveness relative to Ramicade by week 8” value was “LC20 and TNF-α9 are more”. The “RA progression by paw score at week 8 (FIG. 4)” value in [2] (siRNA delivered with PN73) is given as “delayed RA progression”. For the same substance, the “IL-1β mRNA levels” value in [8] was “significant increase”. Also, in series [9] (Lipofectamine transfection), the “Relative protein expression level of IFN-γ” value is given as “Background”, the “Relative protein expression level of IL-12” value was “Background” and the “Relative protein expression level of INF-α” value is on record as “Background”. Besides, in series [9] (transfection with lipofectamine), the “IL-1β, IL-6 and MIP-1α protein expression levels” value is “increase”.

Consider infliximab [Ramicade], for which the “RA score (paw and joint inflammation)” value in series [2] (twice weekly from age 6 weeks, effect beginning at age 7 weeks) is “RA score stabilization”. The “Quantity of TNF-α protein in blood plasma by ELISA” value in series [10] (age 7 weeks) turned out to be 102.24 pg/mL; in [10] (age 8 weeks), 39.27 pg/mL; in series [10] (age 9 weeks), 25.80 pg/mL.

These data come from patent publication US20100113332A1, “METHOD OF TREATING AN INFLAMMATORY DISEASE BY DOUBLE STRANDED RIBONUCLEIC ACID” (NASTECH PHARMACEUTICAL COMPANY INC., priority 2004, published 2010).
